What was measured:
GOAT enzyme = biological target: T1, GOAT enzyme (Mus musculus, UniProt P0C7A3); assay: In vivo dose dependent 3 day BID study for GOAT inhibitor (plasma AG and UAG by ELISA); parameters: species or system male C57BL/6 mice; settings: 3 days; for AG (% of control) / AG/Total-ghrelin (% of vehicle control) / UAG (% of vehicle control) / increase of UAG: plasma; for increase of UAG / decrease of plasma AG: vs vehicle; for reduction in AG to total ghrelin ratio: vs vehicle-treated control animals
T1 construct: endogenous in cells; host or cells: male C57BL/6 mice (whole animal, oral dosing; plasma AG/UAG read-out)
T1 sequence (P0C7A3 1-435): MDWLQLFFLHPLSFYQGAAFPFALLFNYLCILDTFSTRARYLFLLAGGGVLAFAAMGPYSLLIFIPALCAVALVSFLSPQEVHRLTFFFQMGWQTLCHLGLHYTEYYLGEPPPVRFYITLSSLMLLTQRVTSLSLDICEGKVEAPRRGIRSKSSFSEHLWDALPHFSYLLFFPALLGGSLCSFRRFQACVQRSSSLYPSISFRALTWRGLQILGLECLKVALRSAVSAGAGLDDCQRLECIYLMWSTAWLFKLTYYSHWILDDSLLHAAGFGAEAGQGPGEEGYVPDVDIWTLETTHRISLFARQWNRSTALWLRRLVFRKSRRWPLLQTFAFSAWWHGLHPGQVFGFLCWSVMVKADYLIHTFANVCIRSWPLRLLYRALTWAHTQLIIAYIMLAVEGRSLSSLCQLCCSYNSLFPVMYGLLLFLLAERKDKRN
Protocol: Comparing the change in the ratio of AG to total ghrelin in the compound treated group and that of the vehicle treated group reflects the degree of GOAT enzyme inhibition in vivo, due to the dynamic processing of UAG to AG by the GOAT enzyme. In the in vivo pharmacodynamic studies herein, the levels of AG and UAG in plasma and stomach in the vehicle and compound treated groups are measured by ELISA specifically to these two analytes. The total ghrelin level of each sample is computed as the sum of AG and UAG by these ELISA measurements. The ratio of AG to total ghrelin is defined by the level of AG in each sample divided by the level of total ghrelin in the same sample. The levels of AG, UAG and ratio of AG to total ghrelin in the vehicle treated group is computed and set as 100%. The relative change of these parameters in the compound treated group is then computed to determine the effectiveness of the test compound.
Purchase male C57BL/6 mice from Harlan (Indianapolis, Ind.) at 9 weeks of age. House the mice individually in a temperature-controlled (24° C.) facility with a 12 h light/dark cycle (lights on 2200 h), and allow free access to a standard rodent chow (diet 2014, Harlan) and water. Typically, use the mice when they are 10-13 weeks of age at the time of the study. On day 0 of the experiment, randomize the mice into treatment groups (N=7/group) so each group has similar mean body weights. On day 1 and day 2, treat the animals with vehicle (1% hydroxyethylcellulose, 0.25% Tween 80, 0.05% antifoam) or test compound prepared in the vehicle as suspension at various dosages by oral gavage at 7 am and 7 pm. On day 3, fast the animals, move them into clean cages and dose with vehicle or the test compound again at 8 am by oral gavage. That same day at 1 pm, sacrifice the animals by decapitation to collect blood. For details of blood collection and plasma treatments see Blood collection and Extraction of Ghrelin from Plasma section below.
Collect approximately 600 μL blood into a pre-weighed EDTA tube containing 600 μL (defined as Vpreservative) freshly-prepared preservative (4 mM PEFABLOC® [4-(2-aminoethyl) benzenesulfonyl fluoride hydrochloride], 72 mM NaCl, 58 mM NaF, 0.032 N hydrochloric acid, pH 3.0) and mix immediately. Weigh the tube again and keep on ice. To accurately determine the exact blood volume of each sample using this blood collection procedure, the weight of the blood for each mouse is computed using the following equation: Weight of Blood=(Weight of the tube containing Blood+preservative)−(Weight of the tube containing preservative) Blood volume(Vblood)=(Weight of blood)/1.06
Within 15 minutes after the blood collection, samples are centrifuged at 5000 rpm at 4° C. for 8 min Remove plasma (650 μL) to a 5 mL glass tube containing 1 N hydrochloric acid (65 μL), mix and keep on ice.
AG and UAG are extracted from plasma using SEP-PAK®_C18 column to remove interference prior to performing the ELISA. The solid phase extraction of AG and UAG peptides by SEP-PAK®_C18 columns can be performed on a vacuum manifold (Waters Corp) or using a peristaltic pump. The sample SEP-PAK®_column extraction procedure is independently applied to the plasma sample obtained from each individual mouse. The general extraction protocol is described as follows.
All solutions used for the entire protocol of the SEP-PAK® column extraction should be at ice cold condition. Wet SEP-PAK®_columns (WAT054960, Waters Corp, Milford Mass.) with 99.9% ACN/0.1% TFA (1 mL of solution of 100 mL ACN/0.1 mL TFA). […] Once liquid is removed from the column, stop the pressure. Equilibrate the columns with 3% ACN/0.1% TFA (1 mL of 97 mL water, 3 mL ACN, 0.1 mL TFA). […] Dilute approximately 650 μL acidified plasma (defined as Vplasma added to column) to 1.4 mL ice cold 0.1% TFA. Load all diluted acidified plasma from the previous step onto the columns. […] Wash with 3% ACN/0.1% TFA (0.9 mL of 97 mL water, 3 mL ACN, 0.1 mL TFA). […] Repeat the wash two more times. […]

human GOAT = biological target: T2, human GOAT (Homo sapiens, UniProt Q96T53); assay: In vitro cell free human GOAT enzymatic assay; assay type: biochemical; settings: GOAT-His/sf9 microsomal membrane enzyme preparation; ELISA of acyl-ghrelin; n=5
T2 construct: His; made in house; host or cells: Sf9 insect cells (baculovirus, pAN51 vector); used as microsomal membrane preparation
T2 sequence (Q96T53 1-435): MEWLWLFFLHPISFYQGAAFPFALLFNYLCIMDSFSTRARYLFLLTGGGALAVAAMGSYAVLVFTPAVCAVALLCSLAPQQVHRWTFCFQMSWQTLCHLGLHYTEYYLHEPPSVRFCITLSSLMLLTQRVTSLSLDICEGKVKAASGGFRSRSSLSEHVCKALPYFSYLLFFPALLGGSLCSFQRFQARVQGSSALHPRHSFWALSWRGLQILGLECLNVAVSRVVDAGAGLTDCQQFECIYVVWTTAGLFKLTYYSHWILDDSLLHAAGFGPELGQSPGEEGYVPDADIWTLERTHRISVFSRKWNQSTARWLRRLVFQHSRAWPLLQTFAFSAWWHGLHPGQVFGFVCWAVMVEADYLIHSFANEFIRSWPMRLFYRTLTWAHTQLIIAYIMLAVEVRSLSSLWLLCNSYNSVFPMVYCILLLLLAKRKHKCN
Protocol: Human GOAT gene (Accession number: NM_001100916) is subcloned to pAN51 baculoviral expression vector. Baculovirus stock is prepared following the Bac-to-Bac Protocol provided by the vendor, Invitrogen, California, USA. Five milliliters of human GOAT baculoviral stock are added to 500 mL Sf9 cells in HyQ SFX-Insect™ media (HyClone catalog number SH30278.02) at the density of 1×10^6 cells per milliliter in a 2 L Erlenmeyer flask. The flask with human GOAT gene infected Sf9 cells is put on a plate shaker at 120 rpm at 28° C. for 48 h. After 48 h incubation, cells are centrifuged at 1,000×g for 10 min at 4° C. The cell pellets are collected and stored at −80° C. in a freezer until ready for further processing.
One gram cell pellets are suspended in 9 mL chilled homogenization buffer (50 mM Tris-HCl, 250 mM sucrose, adjusted to pH 7.5, and sterile filtered through 0.2 μm Millipore filter). The cell suspension is transferred to a Dounce glass homogenizer. Cell pellets are homogenized with 40 strokes on ice. The homogenate is centrifuged at 3,000 rpm in a Beckman swing bucket rotor at 4° C. for 10 min to remove unbroken cells. […]
Prepare ELISA plates (STREPTAVIDIN SPECTRAPLATE™ 384, Perkin Elmer) by blocking with 2% Heat-Inactivated FBS in PBS (40 μL) (Invitrogen) blocking buffer for 3 h. […] Read plates at 450 nm using an Envision Multilabel plate reader. […]

- AG (% of control) (GOAT enzyme; 0.3 mg/kg oral gavage BID): 101 ± 025 % of control
- AG/Total-ghrelin (% of vehicle control) (GOAT enzyme; 0.3 mg/kg oral gavage BID): 61 ± 04 % of vehicle control
- UAG (% of vehicle control) (GOAT enzyme; 0.3 mg/kg oral gavage BID): 224 ± 035 % of vehicle control
- increase of UAG (GOAT enzyme; 0.3 mg/kg oral gavage BID): 2.24 fold
- decrease of plasma AG (GOAT enzyme; 0.3 mg/kg oral gavage BID): −1%
- reduction in AG to total ghrelin ratio (GOAT enzyme; 0.3 mg/kg oral gavage BID): 39%
- AG (% of control) (GOAT enzyme; 1 mg/kg oral gavage BID): 95 ± 018 % of control
- AG/Total-ghrelin (% of vehicle control) (GOAT enzyme; 1 mg/kg oral gavage BID): 46 ± 011 % of vehicle control
- UAG (% of vehicle control) (GOAT enzyme; 1 mg/kg oral gavage BID): 282 ± 045 % of vehicle control
- increase of UAG (GOAT enzyme; 1 mg/kg oral gavage BID): 2.82 fold
- decrease of plasma AG (GOAT enzyme; 1 mg/kg oral gavage BID): 5%
- reduction in AG to total ghrelin ratio (GOAT enzyme; 1 mg/kg oral gavage BID): 54%
- AG (% of control) (GOAT enzyme; 3 mg/kg oral gavage BID): 55 ± 06 % of control
- AG/Total-ghrelin (% of vehicle control) (GOAT enzyme; 3 mg/kg oral gavage BID): 29 ± 04 % of vehicle control
- UAG (% of vehicle control) (GOAT enzyme; 3 mg/kg oral gavage BID): 253 ± 031 % of vehicle control
- increase of UAG (GOAT enzyme; 3 mg/kg oral gavage BID): 2.53 fold
- decrease of plasma AG (GOAT enzyme; 3 mg/kg oral gavage BID): 45%
- reduction in AG to total ghrelin ratio (GOAT enzyme; 3 mg/kg oral gavage BID): 71%
- AG (% of control) (GOAT enzyme; 10 mg/kg oral gavage BID): 52 ± 010 % of control
- AG/Total-ghrelin (% of vehicle control) (GOAT enzyme; 10 mg/kg oral gavage BID): 23 ± 04 % of vehicle control
- UAG (% of vehicle control) (GOAT enzyme; 10 mg/kg oral gavage BID): 289 ± 044 % of vehicle control
- increase of UAG (GOAT enzyme; 10 mg/kg oral gavage BID): 2.89 fold
- decrease of plasma AG (GOAT enzyme; 10 mg/kg oral gavage BID): 48%
- reduction in AG to total ghrelin ratio (GOAT enzyme; 10 mg/kg oral gavage BID): 77%
- IC50 (human GOAT): ~192 nM
SMILES: Cc1nc(N)c(CCC2CCN(C(=O)[C@H](C)NC(=O)C3CC3)CC2)c(Cl)n1 [Example 1, N-[(1S)-2-[4-[2-(4-Amino-6-chloro-2-methyl-pyrimidin-5-yl)ethyl]-1-piperidyl]-1-methyl-2-oxo-ethyl]cyclopropanecarboxamide]

From patent publication US9035051B1, “Ghrelin O-acyl transferase inhibitor” (Eli Lilly and Company, priority 2013, dated 2015)
